“Also recorded” adds a separate entry of the source.
Tests used:
Format in all cases: cell-based
[1] = test system: NF-κB and AKT signaling in whole-blood monocytes and T cells; assay: LPS stimulation of whole blood, cytoplasmic vs. nuclear signaling; conditions: 1 μg/mL LPS
Method: FIGS. 7A and 7B. Stimulation of Monocytes with 1 μg/mL LPS. A) Comparison of the scatter profiles between Buffer 1 and Buffer 2 lysis, as well as the gating workflow. B) Cytoplasmic vs. nuclear signaling in whole-blood monocytes. C) Cytoplasmic vs. nuclear signaling in T cells.
(§1) The protocol for processing whole blood samples is as follows (see FIG. 1 for a workflow): 1) The sample is first mixed 1:1 with fixative, vortexed, and then incubated for 10 minutes. An extra control tube is included for each buffer, which is stained with all antibodies except for the specific signaling or target antibodies being tested in order to subtract the background signal. […] 6) Once stained, the samples are again washed 2× with PBS or wash buffer, resuspended in PBS+0.5% PFA, and read on a flow cytometer.
(§2) After data acquisition, the samples are gated, compensated, and analyzed as standard flow cytometry samples. […] For example, if staining for the subcellular distribution of FoxP3, where the Background MFIs for the Cytoplasm and Whole Cell are 1.5 and the raw FoxP3 signal is 3.5 and 31.5 for the Cytoplasm and Whole Cell, respectively, then the Cytoplasmic MFI would be calculated to be 2 (i.e., 3.5 (raw)−1.5 (background)=2) and the Nuclear MFI would be calculated to be 28 (i.e., 31.5 (raw)−1.5 (background)−2 (Cytoplasm)=28). […]

[2] = test system: CREB, RelA and ERK phosphorylation in monocytes; assay: Stimulation of monocytes with LPS or GM-CSF, cytoplasmic vs. nuclear signaling; conditions: primarily cytoplasm, 1 μg/mL LPS or 100 ng/mL GM-CSF
Method: FIG. 8. Differential Signaling in Monocytes Induced by 1 μg/mL LPS vs. 100 ng/mL GM-CSF. A) Both LPS and GM-CSF induced CREB phosphorylation at S133, accumulating maximally in the nucleus by 10 min. B) LPS stimulation induced RelA phosphorylation maximally by 10 min in both the cytoplasm and nucleus, though predominantly in the nucleus. C) Both LPS and GM-CSF stimulated ERK phosphorylation primarily in the cytoplasm, maximally by 5 min for GM-CSF and 10 min for LPS.
as §1, with “signal. The background control may also be labeled with isotype-control antibodies for more precise determination of non-specific binding, especially in cells that have characteristically high non-specific binding, such as neutrophils. For indirect antibody labeling, omitting the primary antibody, but still utilizing the secondary antibody, is a common method for determining the degree of non-specific background signal attributable to the secondary antibody, which is typically higher than the direct conjugates of target antibodies.” for “signal.”
as §2

[3] = test system: granulocytes; assay: Detergent titration for differential permeabilization of granulocytes (HSP60, Lamin A/C); conditions: detergent alone
Text: FIG. 6. Titration of Detergents In Order to Identify the Optimal Concentrations for Cytoplasmic vs. Nuclear Membrane Permeabilization of Granulocytes. […] As in FIG. 5, HSP60 and Lamin A/C were used to indicate the degree of mitochondrial inner membrane and nuclear membrane permeabilization, respectively.
For Peripheral Blood Mononuclear Cells (PBMCs), cell lines, and other purified cells, Buffer 1 and Buffer 2 have different compositions than for whole blood; however, the protocol is otherwise the same. Most cell lines perform similar to PBMCs. In addition, whole-blood granulocytes may require a different buffer combination to appropriately permeabilize their cytoplasmic vs. nuclear compartments.
In some cases, using the defined buffers for the Subcellular Localization Kit may not effectively and reproducibly permeabilize granulocytes as they do mononuclear cells, and can be better targeted with a different detergent combination. […] Tween 20 at a concentration >0.5% can be seen to permeabilized the cytoplasmic+mitochondrial membranes without permeabilizing the nuclear membrane, while Digitonin and TX-100 alone at lower concentrations will permeabilize the nuclear or mitochondrial membranes, respectively. Ultimately, differential permeabilization of granulocytes can be more complex than for mononuclear cells depending on the target organelles.

Compound	signaling induced in T cells [1]	time of peak ERK phosphorylation (S202/T204) [2] [min]	concentration permeabilizing the cytoplasmic+mitochondrial membranes without the nuclear membrane [3] [%]
lipopolysaccharide [LPS]	did not stimulate T cells; also recorded: lack of any signaling induced in T cells	≤ 10	–
CCCCCCCCCCCC(=O)OCCOCCOCCOCCOCCOCCOCCOCCOCCOCCOCCOCCOCCOCCOCCOCCOCCOCCOCCOCCOCC(OCCOCCOCCOCCOCCOCCOCCOCCOCCOCCOCCOCCOCCOCCOCCOCCOCCOCCOCCOCCO)C1OCC(OCCOCCOCCOCCOCCOCCOCCOCCOCCOCCOCCOCCOCCOCCOCCOCCOCCOCCOCCOCCO)C1OCCOCCOCCOCCOCCOCCOCCOCCOCCOCCOCCOCCOCCOCCOCCOCCOCCOCCOCCOCCO (stereo not drawn) [Tween 20, Polysorbate 20]	–	–	> 0.5

Source: patent US20190079094A1, “SUBCELLULAR LOCALIZATION OF TARGET ANALYTES” (Beckman Coulter, Inc., priority 2016, published 2019)
